Reference: US20100324067A1, “TETRACYCLIC DIPYRANO-COUMARIN COMPOUNDS WITH ANTI-HIV AND ANTI-MYCOBACTERIUM TUBERCULOSIS ACTIVITIES” (priority 2007, published 2010)
Converted amounts (≈) assume the structure as drawn. Read-outs that look alike come from different tables or passages of the source.

How the values were obtained:
[1] = system: Mycobacterium tuberculosis H37Rv (ATCC 27294); assay: Microplate Alamar Blue Assay (MABA) in BACTEC 12B medium (TAACF screen); format: cell-based; settings: for IC50: read-out: IC50
[2] = read-out: anti-TB active compound (MIC90 less than 10 μg/mL), classification

Row | melting point | Structure (SMILES) | IC50 ([1]; MABA, H37Rv) | MIC90 ([1]; MABA, H37Rv, read-out: MIC90) | other results
1 | 132 to 135 °C | CCCc1cc(=O)oc2c3c(c4c(c12)OC(C)(C)C=C4)OC(=O)CC3 | – | – | –
2 | 139 to 141 °C | CCCc1cc(=S)oc2c3c(c4c(c12)OC(C)(C)C=C4)OC(C)CC3=O (centres unmarked) | – | – | –
3 | 119 to 121 °C | CCCCC1C=Cc2c3c(c4oc(=O)c(F)c(CCC)c4c2O1)C(=O)CC(C)O3 (centres unmarked) | – | – | –
4 | 138 to 139 °C | CCCCC1C=Cc2c3c(c4oc(=O)cc(CCC)c4c2O1)C(=O)CC(C)O3 (centres unmarked) | – | – | –
5 | 140 to 142 °C | CCCc1c(Cl)c(=O)oc2c3c(c4c(c12)OC(CCC)C=C4)OC(C)CC3=O (centres unmarked) | – | – | –
6 | 132 to 134 °C | CC1CC(=O)c2c(c3c(c4c(CCl)cc(=O)oc24)OC(C)(C)C=C3)O1 (centres unmarked) | – | – | –
7 | > 220 °C (dec.) | CCCc1cc(=O)oc2c3c(c4c(c12)OC(C)(C)C=C4)OC(CN)CC3=O (centres unmarked) | – | – | –
8 | 129 to 131 °C | CCCc1cc(=O)oc2c3c(c4c(c12)OC(C)(C)C=C4)OC(CNS(=O)(=O)c1ccc(F)cc1)CC3=O (centres unmarked) | – | – | –
9 | 108 to 109 °C | CCCc1cc(=O)oc2c3c(c4c(c12)OC(C)(C)C=C4)OC(CNS(=O)(=O)c1ccc(OC)cc1)CC3=O (centres unmarked) | – | – | –
10 | 148 to 149 °C | CCCc1cc(=O)oc2c3c(c4c(c12)OC(C)(C)C=C4)OC(CN1CCCC1)CC3=O (centres unmarked) | – | – | –
11 | 154 to 155 °C | CCCc1cc(=O)oc2c3c(c4c(c12)OC(C)(C)C=C4)OC(CN1CCCCC1)CC3=O (centres unmarked) | – | – | –
12 | 161 to 162 °C | CCCc1cc(=O)oc2c(-c3cccn3C(C)C)c(O)c3c(c12)OC(C)(C)C=C3 | – | – | –
13 | 157 to 159 °C | CCCc1cc(=O)oc2c(-c3cccn3Cc3ccco3)c(O)c3c(c12)OC(C)(C)C=C3 | – | – | –
14 | 147 to 149 °C | C/C=C/C1C=Cc2c3c(c4oc(=O)cc(CCC(F)(F)F)c4c2O1)C(=O)CC(C)O3 (centres unmarked) | – | – | –
15 | 121 to 123 °C | CCc1cc(=O)oc2c3c(c4c(c12)OCC(C)=C4)OC(C)CC3=O (centres unmarked) | – | – | –
16 | 127 to 128 °C | CCCc1cc(=O)oc2c3c(c4c(c12)OCC(C)=C4)OC(C)CC3=O (centres unmarked) | – | – | –
17 | – | NCC[C@H](O)C(=O)N[C@@H]1C[C@H](N)[C@@H](O[C@H]2O[C@H](CN)[C@@H](O)[C@H](O)[C@H]2O)[C@H](O)[C@H]1O[C@H]1O[C@H](CO)[C@@H](O)[C@H](N)[C@H]1O [Amikacin, reference compound] | – | – | MIC50 ([1]; control compound): 0.09 µg/mL (≈ 0.154 µM); MIC90 ([1]; control compound, read-out: Avg MIC90): 0.12 µg/mL (≈ 0.205 µM)
18 | – | Cc1c(Cl)c(=O)oc2c3c(c4c(c12)OC(C)(C)C=C4)OC(C)CC3=O (centres unmarked) [Example 3] | 33.4 µg/mL (≈ 92.5 µM) | > 100 µg/mL | –
19 | – | Cc1c(Cc2ccccc2)c(=O)oc2c3c(c4c(c12)OC(C)(C)C=C4)OC(C)CC3=O (centres unmarked) [Example 4] | 7.52 µg/mL (≈ 18 µM) | > 100 µg/mL | –
20 | – | CCCc1cc(=O)oc2c1c(O)cc1occc(=O)c12 [Example 5a-13, 5-hydroxyl-4-n-propyl-benzo[2,3-f]-pyranyl-2,10-dione] | 46.7 µg/mL (≈ 172 µM) | 53.4 µg/mL (≈ 196 µM) | –
21 | – | CCCc1cc(=O)oc2c3c(cc(O)c12)OC(CCC)CC3=O (centres unmarked) [Example 5a-14, benzo[1,2-b:3,4-b′]-dipyranyl-5-hydroxyl-4,8-di-n-propyl-2,10-dione] | 60.2 µg/mL (≈ 190 µM) | 85.8 µg/mL (≈ 271 µM) | –

Row | melting point | Structure (SMILES) | IC50 ([1]; MABA, H37Rv) | MIC90 ([1]; MABA, H37Rv, read-out: MIC90) | other results
22 | – | CCCCCC1CC(=O)c2c(cc(O)c3c(CCC)cc(=O)oc23)O1 (centres unmarked) [Example 5a-15] | 66 µg/mL (≈ 192 µM) | > 100 µg/mL | –
23 | – | CCCc1cc(=O)oc2c3c(cc(O)c12)OC(c1ccccc1)CC3=O (centres unmarked) [Example 5a-16, benzo[1,2-b:3,4-b′]-dipyranyl-5-hydroxyl-8-phenyl-2,10-dione] | 22.5 µg/mL (≈ 64.2 µM) | 25.1 µg/mL (≈ 71.7 µM) | –
24 | – | CCCc1cc(=O)oc2c3c(cc(O)c12)O[C@@H]1CCCC[C@@H]1C3=O [Example 5a-19, benzo[1,2-b:3,4-b′]-dipyranyl-5-hydroxyl-8,9-cis-cyclohexyl-2,10-dione] | 83.1 µg/mL (≈ 253 µM) | > 100 µg/mL | –
25 | – | CCCc1c(Cl)c(=O)oc2c3c(cc(O)c12)OC(C)CC3=O (centres unmarked) [Example 5a-20, benzo[1,2-b:3,4-b′]-dipyranyl-5-hydroxyl-8-methyl-3-chloro-4-n-propyl-2,10-dione] | 26.9 µg/mL (≈ 83.5 µM) | 42 µg/mL (≈ 130 µM) | –
26 | – | CC1CC(=O)c2c(cc(O)c3c4c(c(=O)oc23)CCCC4)O1 (centres unmarked) [Example 5a-27, benzo[1,2-b:3,4-b′]-dipyranyl-5-hydroxyl-8-methyl-3,4-cyclohexyl-2,0-dione] | 94.3 µg/mL (≈ 314 µM) | > 100 µg/mL | –
27 | – | CCCc1c(F)c(=O)oc2c3c(cc(O)c12)OC(C)CC3=O (centres unmarked) [Example 5a-31, benzo[1,2-b:3,4-b′]-dipyranyl-5-hydroxyl-8-methyl-3-fluoro-4-n-propyl-2,10-dione] | 17 µg/mL (≈ 55.5 µM) | 23.5 µg/mL (≈ 76.6 µM) | –
28 | – | CC1CC(=O)c2c(cc(O)c3c(CCC(F)(F)F)cc(=O)oc23)O1 (centres unmarked) [Example 5a-71, benzo[1,2-b:3,4-b′]-dipyranyl-5-hydroxyl-8-methyl-4-((3,3′,3″-trifluoro)-n-propyl)-2,10-dione] | 15.4 µg/mL (≈ 45.1 µM) | 29.9 µg/mL (≈ 87.4 µM) | –
29 | – | CCCc1cc(=O)oc2c3c(cc(OS(=O)(=O)c4ccc(C)cc4)c12)OC(C)CC3=O (centres unmarked) [Example 5a-101, 5-(p-tolyl)sulfonyloxy-8-methyl-4-n-propyl-2H-benzo[2,3-f]dipyranyl-2,10-dione] | 4.2 µg/mL (≈ 9.49 µM) | 6.66 µg/mL (≈ 15.1 µM) | MIC90 [1, 2]: < 10 µg/mL
30 | – | CCCc1cc(=S)oc2c3c(cc(OS(=O)(=O)c4ccc(C)cc4)c12)OC(C)CC3=O (centres unmarked) [Example 5a-102, 5-(p-tolyl)sulfonyloxy-8-methyl-4-n-propyl-2-thio-2H-benzo[2,3-f]dipyranyl-2,10-dione] | 5.48 µg/mL (≈ 12 µM) | 6.24 µg/mL (≈ 13.6 µM) | MIC90 [1, 2]: < 10 µg/mL
31 | – | Cc1cc(=O)oc2cc3c(c(O)c12)C(=O)CC(C)O3 (centres unmarked) [Example 5b-1, benzo[1,2-b:3,4-b′]-dipyranyl-5-hydroxyl-4,8-dimethyl-2,6-dione] | 43.1 µg/mL (≈ 165 µM) | > 100 µg/mL | –
32 | – | Cc1c(Cl)c(=O)oc2cc3c(c(O)c12)C(=O)CC(C)O3 (centres unmarked) [Example 5b-3, benzo[1,2-b:3,4-b′]-dipyranyl-5-hydroxyl-4,8-dimethyl-3-chloro-2,6-dione] | 90.5 µg/mL (≈ 307 µM) | > 100 µg/mL | –
33 | – | CCCc1cc(=O)oc2cc3c(c(O)c12)C(=O)CC(C)O3 (centres unmarked) [Example 5b-11, benzo[1,2-b:3,4-b′]-dipyranyl-5-hydroxyl-4-n-propyl-8-methyl-2,6-dione] | 95.3 µg/mL (≈ 330 µM) | > 100 µg/mL | –
34 | – | CCCc1cc(=O)oc2cc3c(c(O)c12)C(=O)CC(CCC)O3 (centres unmarked) [Example 5b-14, benzo[1,2-b:3,4-b′]-dipyranyl-5-hydroxyl-4,8-di-n-propyl-2,6-dione] | 6.59 µg/mL (≈ 20.8 µM) | > 100 µg/mL | –
35 | – | CCCc1cc(=O)oc2cc3c(c(O)c12)C(=O)CC(c1ccccc1)O3 (centres unmarked) [Example 5b-16, benzo[1,2-b:3,4-b′]-dipyranyl-5-hydroxyl-8-phenyl-2,6-dione] | 4.31 µg/mL (≈ 12.3 µM) | 5.41 µg/mL (≈ 15.4 µM) | MIC90 [1, 2]: < 10 µg/mL
36 | – | CC1CC(=O)c2c(cc3oc(=O)cc(-c4ccccc4)c3c2O)O1 (centres unmarked) [Example 5b-21, benzo[1,2-b:5,4-b′]-dipyranyl-5-hydroxyl-8-methyl-4-phenyl-2,6-dione] | 14.9 µg/mL (≈ 46.1 µM) | 21.3 µg/mL (≈ 66.1 µM) | –
37 | – | O=c1oc2cc(O)cc(O)c2c2c1CCC2 [Example 6-26, 3,4-cyclopentyl-5,7-dihydroxy-coumarin] | 9.97 µg/mL (≈ 45.7 µM) | 24.4 µg/mL (≈ 112 µM) | –
38 | – | CCCCc1cc(=O)oc2cc(O)cc(O)c12 [Example 6-36, 4-n-butyl-5,7-dihydroxy-coumarin] | 11.3 µg/mL (≈ 48.4 µM) | 14.4 µg/mL (≈ 61.6 µM) | –
39 | – | O=c1cc(CCC(F)(F)F)c2c(O)cc(O)cc2o1 [Example 6-71, 4-(3,3′,3″-trifluoro)-n-propyl-5,7-dihydroxy-coumarin] | 2.53 µg/mL (≈ 9.21 µM) | 4.06 µg/mL (≈ 14.8 µM) | MIC90 [1, 2]: < 10 µg/mL
40 | – | CC1CC(=O)c2c(c3c(c4c(-c5ccccc5)cc(=O)oc24)OC(C)(C)C=C3)O1 (centres unmarked) [Example 21] | 16.6 µg/mL (≈ 42.8 µM) | > 100 µg/mL | –
41 | – | CCCCc1cc(=O)oc2c3c(c4c(c12)OC(C)(C)C=C4)OC(C)CC3=O (centres unmarked) [Example 36] | 24.2 µg/mL (≈ 65.8 µM) | 36.6 µg/mL (≈ 99.3 µM) | –

Row | Structure (SMILES) | melting point | IC50 ([1]; MABA, H37Rv) | MIC90 ([1]; MABA, H37Rv, read-out: MIC90) | other results
42 | Cc1cc(=O)oc2c3c(c4c(c12)OC(C)(C)C=C4)OC(C)CC3=O (centres unmarked) [Example 1, 4,6,6,10-tetramethyl-2H,6H,12H-benzo[1,2-b:3,4-b′:5,6-b″]-tripyranyl-2,12-dione] | 213 to 215 °C | 39.2 µg/mL (≈ 120 µM) | 59.5 µg/mL (≈ 182 µM) | –
43 | Cc1c(C)c2c3c(c4c(c2oc1=O)C(=O)CC(C)O4)C=CC(C)(C)O3 (centres unmarked) [Example 2, 3,4,6,6,10-pentamethyl-2H,6H,12H-benzo[1,2-b:3,4-b′:5,6-b″]-tripyranyl-2,12-dione] | 142 to 144 °C | 20.3 µg/mL (≈ 59.7 µM) | 35.2 µg/mL (≈ 103 µM) | –
44 | CC1CC(=O)c2c(c3c(c4c(CN5CCNCC5)cc(=O)oc24)OC(C)(C)C=C3)O1 (centres unmarked) [Example 6, 6,6,10-trimethyl-4-piperazidinylmethylene-10,11-dihydro-6H-benzo[2,3-f:2′,3′-h]-tripyranyl-2,12-dione] | 156 to 158 °C | 52.4 µg/mL (≈ 128 µM) | > 100 µg/mL | –
45 | CC1CC(=O)c2c(c3c(c4c(-c5ccc(N)cc5)cc(=O)oc24)OC(C)(C)C=C3)O1 (centres unmarked) [Example 23, 6,6,10-trimethyl-4-p-aminophenyl-2H,6H,12H-benzo[1,2-b:3,4-b′:5,6-b″]-tripyranyl-2,12-dione] | 149 to 151 °C | 24.2 µg/mL (≈ 60 µM) | 27.6 µg/mL (≈ 68.4 µM) | –
46 | CC1CC(=O)c2c(c3c(c4c(-c5cc(F)c(Cl)nc5Cl)cc(=O)oc24)OC(C)(C)C=C3)O1 (centres unmarked) [Example 25] | 158 to 160 °C | 2.86 µg/mL (≈ 6 µM) | 3.9 µg/mL (≈ 8.18 µM) | MIC90 [1, 2]: < 10 µg/mL
47 | CC1CC(=O)c2c(c3c(c4c5c(c(=O)oc24)CCC5)OC(C)(C)C=C3)O1 (centres unmarked) [Example 26, 6,6,10-trimethyl-3,4-cyclopentyl-2H,6H,12H-benzo[1,2-b:3,4-b′:5,6-b″]-tripyranyl-2,12-dione] | 108 to 109 °C | 23.9 µg/mL (≈ 67.8 µM) | 43.6 µg/mL (≈ 124 µM) | –
48 | CCCc1c(F)c(=O)oc2c3c(c4c(c12)OC(CCC)C=C4)OC(C)CC3=O (centres unmarked) [Example 32, 10-methyl-3-fluoro-4,6-di(-n-propyl)-2H,6H,12H-benzo[1,2-b:3,4-b′:5,6-b″]-tripyranyl-2,12-dione] | 123 to 124 °C | 78.3 µg/mL (≈ 203 µM) | > 100 µg/mL | –
